Reference: article PMC4475474 (Journal of biomolecular screening, 2015)
Where two headings read alike, the source gives them in different places.

Target: Full-length human SAMHD1 (Homo sapiens, UniProt Q9Y3Z3)
Assay: Enzyme-coupled malachite green
Assay type: biochemical
Details: for SAMHD1 inhibition (in words): MG assay dose-response curves; for Hill slope h: variable Hill slope fit (eq 2)

Chain of Full-length human SAMHD1 (Q9Y3Z3 whole entry): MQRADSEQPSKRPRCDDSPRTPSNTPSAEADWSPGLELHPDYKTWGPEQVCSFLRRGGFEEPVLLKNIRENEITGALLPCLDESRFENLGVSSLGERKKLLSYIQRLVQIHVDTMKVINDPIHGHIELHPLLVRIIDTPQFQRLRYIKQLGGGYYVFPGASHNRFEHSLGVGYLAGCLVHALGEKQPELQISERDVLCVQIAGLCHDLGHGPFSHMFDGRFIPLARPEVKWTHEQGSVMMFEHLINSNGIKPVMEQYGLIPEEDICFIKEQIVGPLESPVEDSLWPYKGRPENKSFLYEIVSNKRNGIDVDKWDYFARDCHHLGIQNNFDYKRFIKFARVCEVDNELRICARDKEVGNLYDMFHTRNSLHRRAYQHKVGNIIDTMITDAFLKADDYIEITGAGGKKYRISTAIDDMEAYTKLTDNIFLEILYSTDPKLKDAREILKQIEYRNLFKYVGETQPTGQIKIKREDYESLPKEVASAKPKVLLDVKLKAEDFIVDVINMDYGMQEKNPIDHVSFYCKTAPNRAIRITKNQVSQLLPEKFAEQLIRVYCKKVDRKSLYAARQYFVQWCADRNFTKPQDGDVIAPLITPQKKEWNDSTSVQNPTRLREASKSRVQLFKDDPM

Row | SMILES | SAMHD1 inhibition (in words) | also measured
1 | O=c1ccn([C@H]2C[C@H](O)[C@@H](CO)O2)c(=O)[nH]1 [dUrd, deoxyuridine] | only dGuo showed significant inhibition | –
2 | [Cl-].[Cl-].[Zn+2] [Zn^2+] | – | Hill slope h (MG assay dose-response): 1.2 ± 0.1; IC50 (MG assay dose-response, 0.5 μM SAMHD1, 5 μM PPase, 0.1 mM dGTP, 5 mM MgCl2): 2.1 ± 0.2 µM; inhibition after addition of EDTA (approximately stoichiometric amounts of EDTA added): completely rescued
3 | CC(=O)OCC1=C(C(=O)O)N2C(=O)[C@@H](NC(=O)CCC[C@@H](N)C(=O)O)[C@H]2SC1 [CC-Zn, cephalosporin C] | – | Hill slope h (MG assay dose-response): 1.4 ± 0.1; fold more potent inhibitor (Zn2+ salt vs sodium salt of Ceph C) (ratio of IC50 values of the two salt forms): 200 fold
4 | Nc1nc2c(ncn2[C@H]2CC[C@@H](CO)O2)c(=O)[nH]1 [ddGuo] | significantly weaker inhibition | –
5 | CC(=O)OCC1=C(C(=O)O)N2C(=O)[C@@H](NC(=O)CCC[C@@H](N)C(=O)O)[C@H]2SC1 [Ceph C, cephalosporin C] | weakly inhibitory | –
6 | Nc1ccn([C@H]2C[C@H](O)[C@@H](CO)O2)c(=O)n1 [dCyt, deoxycytosine] | only dGuo showed significant inhibition | –
7 | Nc1ncnc2c1ncn2[C@H]1C[C@H](O)[C@@H](CO)O1 [dAdo, deoxyadenosine] | only dGuo showed significant inhibition | –
8 | Cc1cn([C@H]2C[C@H](O)[C@@H](CO)O2)c(=O)[nH]c1=O [dThy, deoxythymidine] | only dGuo showed significant inhibition | –
9 | Nc1nc2c(ncn2[C@@H]2O[C@H](CO)[C@@H](O)[C@H]2O)c(=O)[nH]1 [rGuo] | significantly weaker inhibition | –
10 | O=c1[nH]cnc2c1ncn2[C@H]1C[C@H](O)[C@@H](CO)O1 [dIno] | significantly less inhibitory | –
11 | Nc1nc2c(ncn2[C@H]2C[C@H](O)[C@@H](CO)O2)c(=O)[nH]1 [dGuo, deoxyguanosine] | significant inhibition | IC50: 488 ± 50 µM
